Our source for the T/C values is PubChem BioAssay AID308 (DTP/NCI, 2004).

The subject of this test is BDF1 mice, L1210 6-MP/6-TG resistant leukemia ip, survival T/C. The test is described as follows: NCI In Vivo Anticancer Drug Screen. Data for tumor model L1210 Leukemia resistant to 6-MP and 6-Thioguanine; NSC 755, NSC 752 (intraperitoneal) in B6D2F1 (BDF1) mice. Conditions: endpoint: mean survival time, higher = longer survival. On the procedure: The antitumor activity of compounds was measured in mice bearing transplantable tumors. Survival or tumor size were measured and the results are expressed as the measurement made in the treated group (T) divided by the measurement made in the vehicle treated control group (C). The tumor model used in this assay is L1210 Leukemia resistant to 6-MP and 6-Thioguanine; NSC 755, NSC 752 (intraperitoneal) in B6D2F1 (BDF1) mice

The mark [1] stands for this setting: dose: 62.0 mg/kg/injection, schedule: Q01DX015 (ip), vehicle: carboxymethylcellulose (CMC).
Setting [2] is: dose: 125.0 mg/kg/injection, schedule: Q01DX015 (ip), vehicle: carboxymethylcellulose (CMC).
The mark [3] stands for this setting: dose: 250.0 mg/kg/injection, schedule: Q01DX015 (ip), vehicle: carboxymethylcellulose (CMC).
Where [4] appears, read: dose: 6.25 mg/kg/injection, schedule: Q01DX Z (ip), vehicle: carboxymethylcellulose (CMC).
Where [5] appears, read: dose: 12.5 mg/kg/injection, schedule: Q01DX Z (ip), vehicle: carboxymethylcellulose (CMC).
The mark [6] stands for this setting: dose: 25.0 mg/kg/injection, schedule: Q01DX Z (ip), vehicle: carboxymethylcellulose (CMC).
Setting [7] is: dose: 50.0 mg/kg/injection, schedule: Q01DX Z (ip), vehicle: carboxymethylcellulose (CMC).
Setting [8] is: dose: 93.0 mg/kg/injection, schedule: Q01DX Z (ip), vehicle: carboxymethylcellulose (CMC).
Where [9] appears, read: dose: 187.0 mg/kg/injection, schedule: Q01DX Z (ip), vehicle: carboxymethylcellulose (CMC).
The mark [10] stands for this setting: dose: 25.0 mg/kg/injection, schedule: Q01DX Z (ip), vehicle: saline.

Toxic doses and inconclusive results are not listed.

Regarding `C(=C\c1ccccc1)/CSc1ncnc2nc[nH]c12`, the T/C runs as follows: under setting [1], 98 % of control; under setting [2], 96 % of control; under setting [3], 91 % of control; (dose: 500.0 mg/kg/injection, schedule: Q01DX015 (ip), vehicle: carboxymethylcellulose (CMC)) 90 % of control; (dose: 1000.0 mg/kg/injection, schedule: Q01DX015 (ip), vehicle: carboxymethylcellulose (CMC)) 90 % of control.

As for `O=CCC(O)C(O)C(O)CO` (centres undefined), the T/C by setting is: (dose: 375.0 mg/kg/injection, schedule: Q01DX Z (ip), vehicle: saline) 113 % of control; (dose: 500.0 mg/kg/injection, schedule: Q01DX Z (ip), vehicle: saline) 113 % of control; (dose: 750.0 mg/kg/injection, schedule: Q01DX Z (ip), vehicle: saline) 116 % of control; (dose: 1000.0 mg/kg/injection, schedule: Q01DX Z (ip), vehicle: saline) 123 % of control.

On to `c1ccc(CNc2ncnc3[nH]ncc23)cc1`, for which the T/C reads like this: (dose: 1.5 mg/kg/injection, schedule: Q01DX Z (ip), vehicle: carboxymethylcellulose (CMC)) 96 % of control; (dose: 3.0 mg/kg/injection, schedule: Q01DX Z (ip), vehicle: carboxymethylcellulose (CMC)) 93 % of control; under setting [4], 101 % of control; under setting [5], 88 % of control; under setting [6], 92 % of control; under setting [7], 93 % of control.

Consider `O=C1C(NC(=O)C2CCCCC2)=C(N2CC2)C(=O)C(NC(=O)C2CCCCC2)=C1N1CC1`, for which the T/C is 99 % of control (dose: 31.0 mg/kg/injection, schedule: Q01DX Z (ip), vehicle: carboxymethylcellulose (CMC)); 101 % of control (dose: 62.5 mg/kg/injection, schedule: Q01DX Z (ip), vehicle: carboxymethylcellulose (CMC)); 93 % of control under setting [8]; 87 % of control (dose: 125.0 mg/kg/injection, schedule: Q01DX Z (ip), vehicle: carboxymethylcellulose (CMC)); 92 % of control under setting [9]; 90 % of control (dose: 250.0 mg/kg/injection, schedule: Q01DX Z (ip), vehicle: carboxymethylcellulose (CMC)).

`CCCC(=O)OCC1OC(n2cnc3c(=S)nc(N)[nH]c32)C(OC(=O)CCC)C1OC(=O)CCC` (centres undefined): the T/C (dose: 6.0 mg/kg/injection, schedule: Q01DX Z (ip), vehicle: carboxymethylcellulose (CMC)) was 113 % of control; the T/C (dose: 12.0 mg/kg/injection, schedule: Q01DX Z (ip), vehicle: carboxymethylcellulose (CMC)) was 93 % of control; the T/C (dose: 24.0 mg/kg/injection, schedule: Q01DX Z (ip), vehicle: carboxymethylcellulose (CMC)) was 98 % of control.

For `CN(C)c1ccc(/C=C/c2ccnc3ccccc23)cc1`, the T/C by setting is: (dose: 1.87 mg/kg/injection, schedule: Q01DX Z (ip), vehicle: saline) 115 % of control; (dose: 3.75 mg/kg/injection, schedule: Q01DX Z (ip), vehicle: saline) 109 % of control; (dose: 7.5 mg/kg/injection, schedule: Q01DX Z (ip), vehicle: saline) 115 % of control; (dose: 15.0 mg/kg/injection, schedule: Q01DX Z (ip), vehicle: saline) 110 % of control; under setting [10], 102 % of control; (dose: 50.0 mg/kg/injection, schedule: Q01DX Z (ip), vehicle: saline) 90 % of control.

On to `CSc1ncc(Br)c(Sc2nc(N)nc3nc[nH]c23)n1`, for which the T/C was 100 % of control (dose: 3.12 mg/kg/injection, schedule: Q01DX Z (ip), vehicle: carboxymethylcellulose (CMC)); 95 % of control under setting [4]; 88 % of control under setting [5].

Turning to `CC(=O)CSc1ncnc2nc[nH]c12`, the T/C (dose: 3.12 mg/kg/injection, schedule: Q01DX015 (ip), vehicle: carboxymethylcellulose (CMC)) was 93 % of control; the T/C (dose: 6.25 mg/kg/injection, schedule: Q01DX015 (ip), vehicle: carboxymethylcellulose (CMC)) was 98 % of control; the T/C (dose: 12.5 mg/kg/injection, schedule: Q01DX015 (ip), vehicle: carboxymethylcellulose (CMC)) was 103 % of control; the T/C (dose: 25.0 mg/kg/injection, schedule: Q01DX015 (ip), vehicle: carboxymethylcellulose (CMC)) is 96 % of control; the T/C (dose: 50.0 mg/kg/injection, schedule: Q01DX015 (ip), vehicle: carboxymethylcellulose (CMC)) was 96 % of control; the T/C under setting [1] was 100 % of control. Also, the T/C is, setting by setting: under setting [2], 100 % of control; under setting [3], 95 % of control.

Consider `CC(=O)OCC1OC(n2cnc3c(=S)nc[nH]c32)C(OC(C)=O)C1OC(C)=O` (centres undefined), for which the T/C reads like this: under setting [6], 104 % of control; under setting [7], 111 % of control; (dose: 100.0 mg/kg/injection, schedule: Q01DX Z (ip), vehicle: carboxymethylcellulose (CMC)) 108 % of control; (dose: 200.0 mg/kg/injection, schedule: Q01DX Z (ip), vehicle: carboxymethylcellulose (CMC)) 98 % of control.

In the case of `C=CCn1cnc2c(=S)nc[nH]c21`, the T/C runs as follows: (dose: 18.0 mg/kg/injection, schedule: Q01DX015 (ip), vehicle: other) 103 % of control; (dose: 26.0 mg/kg/injection, schedule: Q01DX015 (ip), vehicle: other) 108 % of control; (dose: 40.0 mg/kg/injection, schedule: Q01DX015 (ip), vehicle: other) 101 % of control; (dose: 60.0 mg/kg/injection, schedule: Q01DX015 (ip), vehicle: other) 95 % of control.

Consider `CCCNc1ncnc2[nH]ncc12`, for which, under setting [10], the T/C is 111 % of control.

On to `O=c1[nH]c(=O)n(C2CC(O)C(CO)O2)cc1Br` (centres undefined), for which the T/C is, setting by setting: (dose: 20.0 mg/kg/injection, schedule: Q01DX Z (ip), vehicle: carboxymethylcellulose (CMC)) 112 % of control; (dose: 30.0 mg/kg/injection, schedule: Q01DX Z (ip), vehicle: carboxymethylcellulose (CMC)) 114 % of control; (dose: 40.0 mg/kg/injection, schedule: Q01DX Z (ip), vehicle: carboxymethylcellulose (CMC)) 102 % of control; (dose: 60.0 mg/kg/injection, schedule: Q01DX Z (ip), vehicle: carboxymethylcellulose (CMC)) 98 % of control; under setting [8], 117 % of control; under setting [9], 115 % of control. In addition, the T/C was 112 % of control (dose: 375.0 mg/kg/injection, schedule: Q01DX Z (ip), vehicle: carboxymethylcellulose (CMC)) and 109 % of control (dose: 500.0 mg/kg/injection, schedule: Q01DX Z (ip), vehicle: carboxymethylcellulose (CMC)).

With `Nc1ncnc2c1ccn2C1OC(CO)C(O)C1O` (centres undefined), the T/C is, setting by setting: (dose: 0.03 mg/kg/injection, schedule: Q01DX Z (ip), vehicle: carboxymethylcellulose (CMC)) 99 % of control; (dose: 0.06 mg/kg/injection, schedule: Q01DX Z (ip), vehicle: carboxymethylcellulose (CMC)) 101 % of control; (dose: 0.12 mg/kg/injection, schedule: Q01DX Z (ip), vehicle: carboxymethylcellulose (CMC)) 108 % of control; (dose: 0.25 mg/kg/injection, schedule: Q01DX Z (ip), vehicle: carboxymethylcellulose (CMC)) 104 % of control; (dose: 0.5 mg/kg/injection, schedule: Q01DX Z (ip), vehicle: carboxymethylcellulose (CMC)) 106 % of control; (dose: 1.0 mg/kg/injection, schedule: Q01DX Z (ip), vehicle: carboxymethylcellulose (CMC)) 102 % of control. The T/C (dose: 2.0 mg/kg/injection, schedule: Q01DX Z (ip), vehicle: carboxymethylcellulose (CMC)) is 98 % of control.

As for `N#[N+]c1cnc([O-])[nH]c1=O`, the T/C (dose: 5.0 mg/kg/injection, schedule: Q01DX Z (ip), vehicle: alkali diluted with saline) is 166 % of control; the T/C (dose: 7.5 mg/kg/injection, schedule: Q01DX Z (ip), vehicle: alkali diluted with saline) was 177 % of control; the T/C (dose: 10.0 mg/kg/injection, schedule: Q01DX Z (ip), vehicle: alkali diluted with saline) was 150 % of control; the T/C (dose: 15.0 mg/kg/injection, schedule: Q01DX Z (ip), vehicle: alkali diluted with saline) was 95 % of control.

In the case of `CCOC(=O)Sc1ncnc2nc[nH]c12`, the T/C is 95 % of control (dose: 14.0 mg/kg/injection, schedule: Q01DX Z (ip), vehicle: saline); 95 % of control (dose: 28.0 mg/kg/injection, schedule: Q01DX Z (ip), vehicle: saline); 90 % of control (dose: 56.0 mg/kg/injection, schedule: Q01DX Z (ip), vehicle: saline).

For `c1nc(SC2=NCCN2)c2[nH]cnc2n1`, the T/C is 98 % of control (dose: 6.25 mg/kg/injection, schedule: Q01DX Z (ip), vehicle: saline) and 93 % of control (dose: 12.5 mg/kg/injection, schedule: Q01DX Z (ip), vehicle: saline).
